Results on eleven compounds are retold here after ChEMBL document CHEMBL3880414, “Isoform Selective HDAC Inhibitors” (2010).

Calls of active or inactive are those of the source. The calls are words filed in the database; no cut-off is given here.

Assay [1] can be described thus: Antiproliferative activity against human HS68 cells. The class given is cell-based.
A short description of assay [2]: Antiproliferative activity against human MCF10A cells. The class given is cell-based. The conditions noted are these: MCF-10A.
Assay [3] in a line: Antiproliferative activity against human NHP5 cells. The class given is cell-based.
Assay [4] can be described thus: Antiproliferative activity against human DU145 cells. The class given is functional, cell-based. The following applies: DU-145.
Assay [5] is described as follows: Antiproliferative activity against human MDA231 cells. It counts as functional, cell-based. The conditions noted are these: MDA-MB-231.
Assay [6] can be described thus: Antiproliferative activity against human SCC35 cells. It counts as functional, cell-based.
In assay [7] the test system is Plasmodium falciparum. The assay is described as follows: Antiparasitic activity against Plasmodium falciparum FCR-3/Gambia assessed as growth inhibition after 56 hrs. It counts as functional.
The subject of assay [8] is Plasmodium falciparum. The assay is described as follows: Antiparasitic activity against chloroquine-sensitive Plasmodium falciparum 3D7. The class given is functional.
Assay [9] deals with Plasmodium falciparum. Put plainly: Antiparasitic activity against chloroquine-resistant/verapamil-sensitive Plasmodium falciparum FCR-3/Gambia. It counts as functional.
Assay [10] deals with Plasmodium falciparum. Put plainly: Antiparasitic activity against Plasmodium falciparum 7G8 assessed as growth inhibition after 56 hrs. It counts as functional.
Assay [11] relates to Plasmodium falciparum. The assay is described as follows: Antiparasitic activity against Plasmodium falciparum Dd2 assessed as growth inhibition after 56 hrs. The class given is functional.
Assay [12] deals with Plasmodium falciparum. The assay is described as follows: Antiparasitic activity against Plasmodium falciparum 3D7 assessed as growth inhibition after 56 hrs. The class given is functional.
Assay [13] is described as follows: Antiproliferative activity against human MCF7/ADR cells. The following applies: NCI/ADR-RES. The class given is functional, cell-based.
The subject of assay [14] is Plasmodium falciparum. Put plainly: Antiparasitic activity against chloroquine-resistant/verapamil-insensitive Plasmodium falciparum 7G8. It counts as functional.
Assay [15] deals with Plasmodium falciparum. Put plainly: Antiparasitic activity against chloroquine-resistant/verapamil-sensitive Plasmodium falciparum Dd2. It counts as functional.
The target of assay [16] is T1, Histone deacetylase (Homo sapiens) (UniProt Q13547+O15379+Q9UBN7+Q92769+Q9UQL6+Q8WUI4+Q9BY41+Q96DB2+P56524+Q9UKV0+Q969S8). Put plainly: Inhibition of HDAC (unknown origin) at 100 nM using Fluor-Lys as substrate relative to control. The class given is protein assay.
Assay [17] concerns Plasmodium falciparum. Put plainly: Antiparasitic activity against chloroquine-resistant/verapamil-sensitive Plasmodium falciparum Dd2 assessed as growth inhibition in presence of chloroquine. It counts as functional.
For assay [18], the system named is Plasmodium falciparum. Put plainly: Antiparasitic activity against chloroquine-sensitive Plasmodium falciparum HB3. The class given is functional.
The subject of assay [19] is Plasmodium falciparum. The assay is described as follows: Antiparasitic activity against Plasmodium falciparum 3D7 assessed as growth inhibition. The class given is functional.
The subject of assay [20] is Plasmodium falciparum. Put plainly: Antiparasitic activity against Plasmodium falciparum Dd2 assessed as growth inhibition. The class given is functional.
Assay [21] has as its target T1, Histone deacetylase (Homo sapiens). Put plainly: Potency index, ratio of trichostatin A IC50 to compound IC50 for HDAC (unknown origin). The class given is protein assay.
The test system of assay [22] is Plasmodium falciparum. The assay is described as follows: Antiparasitic activity against chloroquine-resistant/verapamil-sensitive Plasmodium falciparum VS/1. It counts as functional.
Assay [23] relates to Plasmodium falciparum. The assay is described as follows: Antiparasitic activity against chloroquine-resistant/verapamil-sensitive Plasmodium falciparum FCB. It counts as functional.
Assay [24] has as its system Plasmodium falciparum. The assay is described as follows: Potentiation of chloroquine-induced anitiparasitic activity in chloroquine-resistant/verapamil-sensitive Plasmodium falciparum FCB assessed as decrease in chloroquine IC50 relative to control. The class given is functional.
The subject of assay [25] is Plasmodium falciparum. Put plainly: Potentiation of chloroquine-induced anitiparasitic activity in chloroquine-resistant/verapamil-sensitive Plasmodium falciparum Dd2 assessed as decrease in chloroquine IC50 relative to control. The class given is functional.

Usually IC50 stands for the point on the concentration scale where inhibition reaches its midpoint. A lower IC50 goes with inhibition by little substance. For `N[C@@H](Cc1c[nH]c2ccccc12)C(=O)Nc1ccccc1-c1ccc(NC(=O)CCCCCCC(=O)NO)cc1`, the values for the IC50 in assay [1] and in assay [2] were above 300000 nM and above 100000 nM, respectively.

For `N[C@@H](Cc1ccc(O)cc1)C(=O)Nc1ccccc1-c1ccc(NC(=O)CCCCCCC(=O)NO)cc1`, the 50% inhibitory concentration (IC50) was above 300000 nM in [1], above 100000 nM in [2] and 100000 nM in assay [3].

As for `O=C(CCCCCCC(=O)Nc1nc(-c2cccc([N+](=O)[O-])c2)cs1)NO`, the IC50 in [4] is 320 nM; in assay [5] it was below 400 nM; in assay [6], 380 nM; with Plasmodium falciparum [8], 30 nM; with Plasmodium falciparum [9], 22 nM; in [13] it was 3000 nM. For the same compound, the figures for the concentration for half-maximal inhibition (IC50) with Plasmodium falciparum [14] and in the assay with Plasmodium falciparum [15] were 10 nM and 12 nM, respectively. Also, the “growth inhibition (GI)” value in the assay with Plasmodium falciparum [7], with Plasmodium falciparum [10], with Plasmodium falciparum [11] and with Plasmodium falciparum [12] was “Active” each time.

What is called inhibition is the share of the control response that was lost under treatment. As to `Nc1ccccc1-c1csc(NC(=O)CCCCCCC(=O)NO)n1`, in [16], the inhibition was 2%.

Consider `Nc1cccc(-c2csc(NC(=O)CCCCCCC(=O)NO)n2)c1`, for which the half-inhibitory concentration (IC50) in assay [4] was 320 nM; in assay [5], below 400 nM; in assay [6] it was 100 nM; in the assay with Plasmodium falciparum [18], 0.9 nM; with Plasmodium falciparum [8], 1.25 nM; in assay [13] it was 3000 nM. Half-maximal inhibition in the assay on Plasmodium falciparum [14] (IC50) was put at 0.175 nM. For the same compound, the “growth inhibition (GI)” value in the assay on Plasmodium falciparum [17], with Plasmodium falciparum [7], in the assay on Plasmodium falciparum [10], in the assay with Plasmodium falciparum [11] and in the assay on Plasmodium falciparum [12] was “Active” throughout.

In the case of `N[C@@H](Cc1ccccc1)C(=O)Nc1ccccc1-c1ccc(NC(=O)CCCCCCC(=O)NO)cc1`, the IC50 in assay [2] was determined as 100000 nM.

For `O=C(CCCCCCC(=O)Nc1nc(-c2ccccc2)cs1)NO`, the concentration for half-maximal inhibition (IC50) is 190 nM in assay [4], below 400 nM in [5], 280 nM in assay [6] and 400 nM in [13]. In addition, the “growth inhibition (GI)” value with Plasmodium falciparum [7], in the assay on Plasmodium falciparum [10], in the assay on Plasmodium falciparum [11] and in the assay on Plasmodium falciparum [12] was “Active” in each case.

With `Nc1ccccc1-c1ccc(NC(=O)CCCCCCC(=O)NO)cc1`, the 50% inhibitory concentration (IC50) in assay [4] was 180 nM; in assay [5], 1000 nM; in assay [6], 2580 nM; in [13] it was 10000 nM. The “growth inhibition (GI)” value in the assay on Plasmodium falciparum [19], with Plasmodium falciparum [10] and in the assay with Plasmodium falciparum [20] was “Active” in each case.

As to `CCOC(=O)Nc1cccc(-c2csc(NC(=O)CCCCCCC(=O)NO)n2)c1`, in [21], the Ratio IC50 was determined as 2. In addition, the IC50 in [4] was 520 nM; in [6], 190 nM.

Consider `CN(C)c1ccc(NC(=O)NCCCCCCC(=O)NO)cc1`, for which the IC50 was 250 nM with Plasmodium falciparum [22]; 125 nM in the assay with Plasmodium falciparum [23]; 250 nM in the assay on Plasmodium falciparum [18]; 450 nM in the assay with Plasmodium falciparum [8]; 175 nM in the assay on Plasmodium falciparum [9]; 300 nM in the assay with Plasmodium falciparum [14]. The compound also yielded a half-maximal inhibitory concentration (IC50) with Plasmodium falciparum [15] of 185 nM. Further, the “fold change (FC)” value was 5.5 with Plasmodium falciparum [24] and 3.5 in the assay with Plasmodium falciparum [25].

Turning to `O=C(CCCCCCC(=O)Nc1ccc(-c2ccccc2)cc1)NO`, the IC50 is 580 nM in [4], below 400 nM in assay [5], 100 nM in assay [6] and 350 nM in [13]. Also, the “growth inhibition (GI)” value in the assay on Plasmodium falciparum [19], in the assay with Plasmodium falciparum [10] and in the assay on Plasmodium falciparum [20] was “Active” throughout.
